The values that follow come from patent US11951131B2, “Anti-SLAMF7 chimeric antigen receptors” (The United States of America, as represented by the …, priority 2018, dated 2024).

Experiment [1] concerns IC9-Luc90-CD828Z CAR T cells. The experiment in a line: AP1903 abrogation of CAR T-cell activity in MM.1S tumor-bearing mice. The experiment is classed as in vivo, NSG mice. Conditions: 2×10^6 IC9-Luc90-CD828Z T cells plus vehicle control. How it is done: First, MM.1S human SLAMF7^+ multiple myeloma cell line tumors were established in immunodeficient mice. In this model, the MM.1S cells formed a solid cutaneous mass. Measurable tumors were allowed to develop over 7 days, and then the mice were treated with a single intravenous infusion of MSGV1-IC9-Luc90-CD828Z-transduced human T cells. NSG mice (NOD.Cg-Prkdc^scid Il2rg^tm1Wjl/SzJ) from The Jackson Laboratory, Bar Harbor, Me., were used. Mice received intradermal injections of 4×10^6 MM.1S cells. The cells were suspended in a 1:1 mixture of MATRIGEL™ gelatinous protein mixture (BD Biosciences) and PBS (Phosphate-buffered saline) for injection. Tumors were allowed to grow for 7 days, and then each mouse received a single intravenous infusion of human T cells that were transduced with one of 3 CARs: IC9-Luc90-CD828Z (suicide gene+anti-SLAMF7 CAR), Luc90-CD828Z (anti-SLAMF7 CAR alone), or a negative-control anti-CD19 CAR Hu19-CD828Z. A 4th group was left untreated. All groups included 5 mice. After CAR T-cell infusion, the tumors were measured with calipers every 3 days. The longest length and the length perpendicular to the longest length and the tumor thickness were multiplied together to obtain the tumor volume in mm^3. When the longest length reached 15 mm, mice were sacrificed. Animal studies were approved by the National Cancer Institute Animal Care and Use Committee.
MM.1S tumors were established in NSG mice as described in Example 9. The mice were treated with 2×10^6 IC9-Luc90-CD828Z T cells. The mice received 5 mg/kg of AP1903 intraeritoneally for either 3 days or 12 days after the CAR T-cell infusion. […] Also levels of IC9-Luc90-CD828Z CART cells in the mice receiving AP1903 were reduced as compared to the mice receiving the vehicle.

Experiment [2] concerns SLAMF7-RPMI. The experiment in a line: IFN-gamma ELISA, CAR T cells cultured overnight with SLAMF7-RPMI target cells. Format: cell-based, human. An excerpt: (§1) MM.1S is a SLAMF7^+ multiple myeloma cell line that was obtained from American Type Culture Collection (ATCC). A549 is a BCMA-negative lung cancer cell line (ATCC). TC71 is a BCMA-negative sarcoma cell line. CCRF-CEM, 293T, and A549 are SLAMF7-negative cell lines (ATCC). COL0207, HepG2, U251, Panc10.05, and TC71 are […] that were kind gifts from Dr. Steven Rosenberg, National Cancer Institute. SLAMF7-K562 are K562 cells (ATCC) which were transduced with the gene for full-length SLAMF7. SLAMF7-RPMI are RPMI8226 cells (ATCC) which were transduced with the gene for full-length SLAMF7. NGFR-K562 are K562 cells which were transduced with the gene for low-affinity nerve growth factor (Kochenderfer et al., J. Immunother., 32(7): 689-702 (2009)). All of the human samples mentioned were obtained from patients enrolled in IRB-approved clinical trials at the National Cancer Institute.
(§2) One-hundred thousand SLAMF7^+ or SLAMF7-negative target cells were combined with 100,000 CAR-transduced T cells in duplicate wells of a 96 well round bottom plate in 200 µL of AIM V™ medium (Invitrogen) plus 5% human serum. The plates were incubated at 37° C. for 18-20 hours. Following the incubation, ELISAs (enzyme-linked immunosorbent assays) for IFNγ were performed by using standard methods.
The T cells columns indicate whether T cells were transduced with Luc90-CD828Z, Luc63-CD828Z, or were untransduced. The % CAR^+ in Table B-1 was determined by staining the T cells with Protein L. Except for the % CAR^+ column, all values are pg/mL of IFN-gamma. T cells that were either untransduced or transduced with one of the indicated CARs were cultured with target cells overnight and a standard IFN-gamma ELISA was performed on the culture supernatant.
(§3) All values are pg/mL of IFN-gamma. T cells that were either untransduced or transduced with one of the indicated CARs were cultured with target cells overnight, and a standard IFN-gamma ELISA was performed on the culture supernatant.
The values in the cells are pg/mL of IFN-gamma. T cells that were either untransduced or transduced with one of the indicated CARs were cultured with target cells overnight, and a standard IFN-gamma ELISA was performed on the culture supernatant. The concentrations of 0, 50, or 200 ng/mL at the top of each column indicates the concentration of soluble SLAMF7 added to all T cell plus target cell overnight cultures in that column. The soluble SLAMF7 was added at the beginning of the overnight culture.
(In general: ELISA stands for enzyme-linked immunosorbent assay.)

Experiment [3] concerns 293T. The experiment in a line: IFN-gamma ELISA, CAR T cells with 293T target cells. Format: cell-based, human. Conditions: Table B-1; SLAMF7-negative cell line.
From the text: as §1
(§4) One-hundred thousand SLAMF7^+ or SLAMF7-negative target cells were combined with 100,000 CAR-transduced T cells in duplicate wells of a 96 well round bottom plate in 200 µL of AIM V™ medium (Invitrogen) plus 5% human serum. […]
(§5) The T cells columns indicate whether T cells were transduced with Luc90-CD828Z, Luc63-CD828Z, or were untransduced. The % CAR^+ in Table B-1 was determined by staining the T cells with Protein L. Except for the % CAR^+ column, all values are pg/mL of IFN-gamma. […]

Experiment [4] relates to COLO 205. The experiment in a line: IFN-gamma ELISA, CAR T cells with COLO 205 target cells. The experiment is classed as cell-based, human. Conditions: Table B-1.
From the text: as §1, §4, §5

For experiment [5], the system named is HepG2. The experiment in a line: IFN-gamma ELISA, CAR T cells with HepG2 target cells. The experiment is classed as cell-based, human. Conditions: Table B-1.
From the text: as §1, §4, §5

Experiment [6] concerns TC71. The experiment in a line: IFN-gamma ELISA, CAR T cells with TC71 target cells. The experiment is classed as cell-based, human. Conditions: Table B-2.
From the text: as §1, §4, §5

The subject of experiment [7] is A549. The experiment in a line: IFN-gamma ELISA, CAR T cells with A549 target cells. The experiment is classed as cell-based, human. Conditions: Table B-2; SLAMF7-negative.
From the text: as §1, §4, §5

Experiment [8] concerns H929. The experiment in a line: IFN-gamma ELISA, CAR T cells with H929 target cells. Format: cell-based, human. Conditions: Table C. As for the experimental part:
as §2, §3

The test system of experiment [9] is SLAMF7^+ target cells. The experiment in a line: IFN-gamma ELISA and functional assays. Format: cell-based, human. How it is done:
as §2
CAR-expressing T cells cultured alone produced very low levels of IFNγ. IFNγ production of T cells expressing a CAR with a 4-1BB moiety, Luc90-CD8BBZ, was compared to IFNγ production of T cells expressing Luc90-CD828Z (Table C). […] Low levels of soluble SLAMF7 are found in the serum of some MM patients (see Tai, et al., Blood, 112(4): 1329-1337 (2008)). IFNγ ELISA assays were conducted to determine if adding SLAMF7 to cultures of anti-SLAMF7 CAR T cells plus target cells could block IFNγ release by the CAR T cells (Table D). IFNγ release by the CART cells was used as a measure recognition of the SLAMF7^+ target cells by the CAR T cells. The concentrations of soluble SLAMF7 added to the cultures were similar to those found in the blood of patients. Blocking of SLAMF7^+ target cell recognition by the soluble SLAMF7 was not observed. Also, activation of the anti-SLAMF7 CAR T cells by the soluble SLAMF7 was not observed.

On to “IC9-Luc90-CD828Z: CAR plus suicide gene construct (SEQ ID NO: 31): IC9 suicide gene 5′ to the CAR, T2A, Luc90-CD828Z”, for which, in experiment [1], the “tumor outcome in mice receiving vehicle instead of AP1903” value is given as “tumor elimination”.

Regarding “Luc90-CD828Z: anti-SLAMF7 CAR (SEQ ID NO: 27): murine Luc90 scFv, human CD8a hinge and TM, CD28 and CD3ζ domains; tested as transduced T cells”, in experiment [2] (Table B-1, overnight culture, ELISA on supernatant), the “IFN-gamma, target cells SLAMF7-RPMI” value is 21293 pg/mL. Further, the “IFN-gamma, target cells SLAMF7-RPMI8226” value in [2] (Table C, overnight culture) is 20832 pg/mL. For the same substance, the “IFN-gamma, target cells SLAMF7 RPMI 0 ng/ml” value in experiment [2] (Table D, soluble SLAMF7 added 0 ng/ml) worked out at 23538 pg/mL. The “IFN-gamma, target cells SLAMF7 RPMI 50 ng/ml” value in experiment [2] (Table D, soluble SLAMF7 added 50 ng/ml) came out at 23.315 ng/mL. Also, in experiment [2] (Table D, soluble SLAMF7 added 200 ng/ml), the “IFN-gamma, target cells CD319 RPMI 200 ng/ml” value was 21301 pg/mL. Besides, the “IFN-gamma, target cells 293T” value in experiment [3] came to 37 pg/mL. Moreover, the “IFN-gamma, target cells COLO 205” value in experiment [4] is given as 19 pg/mL. Also, in experiment [5], the “IFN-gamma, target cells HepG2” value is listed as 24 pg/mL. The “IFN-gamma, target cells TC71” value in [6] turned out to be 82 pg/mL. In experiment [7], the “IFN-gamma, target cells A549” value worked out at 79 pg/mL. Moreover, in experiment [8], the “IFN-gamma, target cells H929” value is given as 531 pg/mL. The “function of T cells expressing the CAR, overall comparison” value in experiment [9] (ELISA assays and CD107a degranulation experiments, versus huLuc63-CD828Z) is recorded as “superior”. The “SLAMF7-specific IFNγ release, comparison of CARs” value in [9] (Luc90-CD828Z versus huLuc63-CD828Z, most experiments) is given as “greater”.
